Assay results as given in PubChem BioAssay AID1963843 (Molecular Pharmacology Branch, DTP, NCI, 2024).
Values joined by “and” are separate entries in the source; they are usually repeats but may differ in a detail not shown here. Equal entries are not always repeated.

Test system: 616215-338-R-J1-PDC complex spheroid viability
Test: Anticancer human tumor 616215-338-R-J1-PDC patient-derived colon adenocarcinoma cell line growth inhibition [POLQ]
Details: for viability, T/C: stronger effect = lower value
Experimental: Multicellular complex tumor spheroid response to Polymerase (POL) inhibitors (novobiocin, ART-558, RP6685) in combination with a variety of drugs and investigational agents in selected tumor cell lines
The POL inhibitors (novobiocin, ART-558, and RP6685) were evaluated both individually and in combination with standard of care and investigational anticancer small molecules within a complex spheroid model of solid tumors. . Complex spheroids include a stromal component modeled by human endothelial cells (HUVEC) and fibroblasts modeled by human mesenchymal stem cells (MSCs). The concentration ranges selected for each drug and investigational agent were based upon clinically achievable concentrations if the clinical Cmax of the agent was known.
Compounds. The drugs and investigational agents: novobiocin (NSC847541), ART-558 (NSC835418), RP-6685 (NSC848927), peposertib (NSC802822), ceralasertib (NSC780249), elimusertib (NSC800525), camonsertib (NSC841442), AZD-1390 (NSC803789), olaparib (NSC753686), talazoparib (NSC767125), rucaparib (NSC756644), sotorasib (NSC818433), MRTX-1133 (NSC836407), SN-38 (NSC673596), topotecan (NSC609699), epotoside (NSC141540), doxorubicin (NSC123127), gemcitabine (NSC613327), 5-fluorouracil (NSC19893), paclitaxel (NSC125973), vemurafenib (NSC761431), MSA-2 (NSC828583), SN-011 (NSC837082), adavosertib (NSC754352), prexasertib (NSC758257), carboplatin (NSC241240) and oxaliplatin (NSC266046), were obtained from the National Cancer Institute (NCI) Developmental Therapeutics Program Chemical Repository (21). The FDA-approved anticancer drug set is available from the Developmental Therapeutics Program at https://dtp.cancer.gov/organization/dscb/obtaining/. […] The stock solutions were prepared in dimethyl sulfoxide (DMSO, Sigma-Aldrich, St. Louis, MO, cat. D2650), except for the platinum compounds which were prepared in saline (Quality Biological, Gaithersburg, MD, cat. 114-055-101), at 800-fold the tested concentration and stored at -70 degrees C prior to their use. All drugs and investigational agents were tested over a range starting from a high concentration at or near the clinical Cmax and decreasing in half-log increments. If the clinical Cmax for an agent had not been determined, the highest concentration tested was 10 microM, except for SN-38, which was tested at a high concentration of 1 microM.
Cell Culture. All cells were maintained in an incubator at 37 degrees C and 5% CO2 with 95% humidity. The PDC lines were cultured according to standard operating procedures established by the NCI PDMR (https://pdmr.cancer.gov). Table 3 of the manuscript, lists the cell lines along with the number of the three cell types plated to form the mct-spheroids and media for tumor cell growth. After thawing, all PDC lines, except 997537-175-T-J1-PDC and 415267-285-R-J2-PDC, were cultured in Matrigel-coated flasks prepared with a working solution of 1X Ham's F-12 nutrient mix, without supplementation (Thermo Fisher Scientific, cat. 11765054), 100 U/mL penicillin-streptomycin (Thermo Fisher Scientific, cat. 15140122), and 2.5% Matrigel (Corning Inc., Corning, NY, cat. 354248) for the first three passages. The two PDC lines 997537-175-T-J1-PDC and 415267-285-R-J2-PDC were cultured on uncoated flasks. The 857933-349-R-J2-PDC line was cultured in 6C/Colon 1B media containing advanced DMEM/F-12 (Thermo Fisher Scientific, cat. 12634028), 10 mM HEPES (Thermo Fisher Scientific, cat. 15630080), 1X GlutaMAX supplement (Thermo Fisher Scientific, cat. 35050061), 0.1 mg/mL primocin (InvivoGen, San Diego, CA, cat. ant-pm-2), 10% defined fetal bovine serum, heat inactivated (HyClone Laboratories Inc., Logan, UT, cat. SH30070.03HI), 50% L-WRN conditioned media (ATCC, cat. CRL-3276), 1.25 mM N-Acetyl-L-cysteine (Sigma-Aldrich, cat. A9165), 10 mM nicotinamide (Sigma-Aldrich, cat. N0636), 1X B-27 supplement (Thermo Fisher Scientific, cat. 17504044), 1X N-2 supplement (Thermo Fisher Scientific, cat. […]
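Note: spheroids exposed to compounds for one week before readout.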
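Throughout, for viability, T/C: percent viability relative to DMSO vehicle wells taken as 100%.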

## CCCS(=O)(=O)Nc1ccc(F)c(C(=O)c2c[nH]c3ncc(-c4ccc(Cl)cc4)cc23)c1F
Compound 0.0316 µM
  viability, T/C: 106% and 102% and 108%
Compound 0.1 µM
  viability, T/C: 97.4% and 107% (2×)
Compound 0.316 µM
  viability, T/C: 105% and 102% and 97.8%
Compound 1 µM
  viability, T/C: 107% and 102% and 95.8%
Compound 3.16 µM
  viability, T/C: 101% (2×) and 91.2%
Compound 10 µM
  viability, T/C: 10.8% and 13.5% and 20.5%
Curve of compound
  IC50: 6.07 µM and 6.2 µM and 6.12 µM

## C#Cc1c(F)ccc2cc(O)cc(-c3ncc4c(N5CC6CCC(C5)N6)nc(OCC56CCCN5CC(F)C6)nc4c3F)c12 (stereo not drawn)
Compound 0.0316 µM
  viability, T/C: 101% (2×) and 104%
Compound 0.1 µM
  viability, T/C: 90.4% and 90.9% and 90.6%
Compound 0.316 µM
  viability, T/C: 104% and 103% and 97.6%
Compound 1 µM
  viability, T/C: 107% and 71.8% and 104%
Compound 3.16 µM
  viability, T/C: 109% and 54.8% and 93.5%
Compound 10 µM
  viability, T/C: 72.4% and 33.1% and 66.3%
Curve of compound
  IC50: > 10 µM and 3.54 µM

## Nc1ccn(C2OC(CO)C(O)C2(F)F)c(=O)n1 (stereo not drawn)
Compound 0.0316 µM
  viability, T/C: 49.9% and 23.8% and 51.6%
Compound 0.1 µM
  viability, T/C: 31.7% and 15.1% and 34.2%
Compound 0.316 µM
  viability, T/C: 23.7% and 12.2% and 23.2%
Compound 1 µM
  viability, T/C: 30.1% and 13.1% and 30.2%
Compound 3.16 µM
  viability, T/C: 31.8% and 14.3% and 32.1%
Compound 10 µM
  viability, T/C: 34.7% and 16.4% and 33.6%
Curve of compound
  IC50: < 0.0316 µM

## O=C(c1cc(Cc2n[nH]c(=O)c3ccccc23)ccc1F)N1CCN(C(=O)C2CC2)CC1
Compound 0.0316 µM
  viability, T/C: 89.5% and 67.6% and 97.3%
Compound 0.1 µM
  viability, T/C: 103% and 72.8% and 110%
Compound 0.316 µM
  viability, T/C: 102% and 71.6% and 106%
Compound 1 µM
  viability, T/C: 101% (2×) and 72.6%
Compound 3.16 µM
  viability, T/C: 101% and 73.1% and 87.7%
Compound 10 µM
  viability, T/C: 99.3% and 58.1% and 60.9%
Curve of compound
  IC50: > 10 µM

## CNCc1ccc(-c2[nH]c3cc(F)cc4c3c2CCNC4=O)cc1
Compound 0.0316 µM
  viability, T/C: 92.7% and 108% and 87.4%
Compound 0.1 µM
  viability, T/C: 99.1% and 101% and 106%
Compound 0.316 µM
  viability, T/C: 102% and 104% and 96.3%
Compound 1 µM
  viability, T/C: 96.4% and 106% and 107%
Compound 3.16 µM
  viability, T/C: 103% and 107% and 96.9%
Compound 10 µM
  viability, T/C: 90.2% and 26.3% and 83.5%
Curve of compound
  IC50: > 10 µM and 7.08 µM

## CCc1cc2c(N3CCc4c(cc(Cn5ccnc5)cc4-c4cn(C)nc4C(F)(F)F)C3=O)ccnc2c(OC)n1 + COC1C(OC(N)=O)C(O)C(Oc2ccc3c(O)c(NC(=O)c4ccc(O)c(CC=C(C)C)c4)c(=O)oc3c2C)OC1(C)C
Curve of first compound, second compound 0.0316 µM
  IC50: > 10 µM
Curve of first compound, second compound 0.1 µM
  IC50: > 10 µM
Curve of first compound, second compound 0.316 µM
  IC50: > 10 µM
Curve of first compound, second compound 1 µM
  IC50: 9.75 µM
Curve of first compound, second compound 3.16 µM
  IC50: 9.64 µM
Curve of first compound, second compound 10 µM
  IC50: 8.33 µM
Second compound 0.0316 µM, first compound 0.0316 µM
  viability, T/C: 97.2%
Second compound 0.0316 µM, first compound 0.1 µM
  viability, T/C: 108%
Second compound 0.0316 µM, first compound 0.316 µM
  viability, T/C: 111%
Second compound 0.0316 µM, first compound 1 µM
  viability, T/C: 106%
Second compound 0.0316 µM, first compound 3.16 µM
  viability, T/C: 80%
Second compound 0.0316 µM, first compound 10 µM
  viability, T/C: 52.8%
Second compound 0.1 µM, first compound 0.0316 µM
  viability, T/C: 106%
Second compound 0.1 µM, first compound 0.1 µM
  viability, T/C: 108%
Second compound 0.1 µM, first compound 0.316 µM
  viability, T/C: 92.9%
Second compound 0.1 µM, first compound 1 µM
  viability, T/C: 106%
Second compound 0.1 µM, first compound 3.16 µM
  viability, T/C: 77%
Second compound 0.1 µM, first compound 10 µM
  viability, T/C: 50.3%
Second compound 0.316 µM, first compound 0.0316 µM
  viability, T/C: 96%
Second compound 0.316 µM, first compound 0.1 µM
  viability, T/C: 103%
Second compound 0.316 µM, first compound 0.316 µM
  viability, T/C: 115%
Second compound 0.316 µM, first compound 1 µM
  viability, T/C: 102%
Second compound 0.316 µM, first compound 3.16 µM
  viability, T/C: 66.5%
Second compound 0.316 µM, first compound 10 µM
  viability, T/C: 53.8%
Second compound 1 µM, first compound 0.0316 µM
  viability, T/C: 105%
Second compound 1 µM, first compound 0.1 µM
  viability, T/C: 98.7%
Second compound 1 µM, first compound 0.316 µM
  viability, T/C: 99%
Second compound 1 µM, first compound 1 µM
  viability, T/C: 100%
Second compound 1 µM, first compound 3.16 µM
  viability, T/C: 81.4%
Second compound 1 µM, first compound 10 µM
  viability, T/C: 49.3%
Second compound 3.16 µM, first compound 0.0316 µM
  viability, T/C: 106%
Second compound 3.16 µM, first compound 0.1 µM
  viability, T/C: 100%
Second compound 3.16 µM, first compound 0.316 µM
  viability, T/C: 103%
Second compound 3.16 µM, first compound 1 µM
  viability, T/C: 98.2%
Second compound 3.16 µM, first compound 3.16 µM
  viability, T/C: 74.8%
Second compound 3.16 µM, first compound 10 µM
  viability, T/C: 49.2%
Second compound 10 µM, first compound 0.0316 µM
  viability, T/C: 109%
Second compound 10 µM, first compound 0.1 µM
  viability, T/C: 97.7%
Second compound 10 µM, first compound 0.316 µM
  viability, T/C: 102%
Second compound 10 µM, first compound 1 µM
  viability, T/C: 93.1%
Second compound 10 µM, first compound 3.16 µM
  viability, T/C: 67.7%
Second compound 10 µM, first compound 10 µM
  viability, T/C: 46.7%

## COc1cccc(OCCCN)c1-c1cc(Nc2cnc(C#N)cn2)n[nH]1
Compound 0.00316 µM
  viability, T/C: 95.5% and 106% and 104%
Compound 0.01 µM
  viability, T/C: 101% and 98.7% and 97.4%
Compound 0.0316 µM
  viability, T/C: 88.6% and 68.9% and 76.7%
Compound 0.1 µM
  viability, T/C: 86.1% and 63.8% and 55.3%
Compound 0.316 µM
  viability, T/C: 64.6% and 33.6% and 49.9%
Compound 1 µM
  viability, T/C: 55.9% and 30.1% and 34.7%
Curve of compound
  IC50: > 1 µM and 0.15 µM and 0.201 µM

## COc1ccc([C@@H](O)c2cc(-c3ncnc4cc(N5CCOCC5)ccc34)c(F)cc2Cl)nn1
Compound 0.0316 µM
  viability, T/C: 115% and 87.7% and 103%
Compound 0.1 µM
  viability, T/C: 107% and 104% and 100%
Compound 0.316 µM
  viability, T/C: 105% and 93.9% and 110%
Compound 1 µM
  viability, T/C: 93.6% and 86.9% and 104%
Compound 3.16 µM
  viability, T/C: 100% and 81.2% and 104%
Compound 10 µM
  viability, T/C: 69.3% and 54.8% and 75.3%
Curve of compound
  IC50: > 10 µM

## C=CCn1c(=O)c2cnc(Nc3ccc(N4CCN(C)CC4)cc3)nc2n1-c1cccc(C(C)(C)O)n1
Compound 0.00316 µM
  viability, T/C: 98.4% and 98.6% and 104%
Compound 0.01 µM
  viability, T/C: 101% and 96.2% and 96.8%
Compound 0.0316 µM
  viability, T/C: 105% and 102% and 99.9%
Compound 0.1 µM
  viability, T/C: 93.8% and 88.6% and 96.6%
Compound 0.316 µM
  viability, T/C: 88.4% and 64% and 54.5%
Compound 1 µM
  viability, T/C: 60.4% and 31.4% and 34.6%
Curve of compound
  IC50: > 1 µM and 0.516 µM and 0.41 µM
